What was measured:
[1] = Stability of Creatine amides in human blood plasma (RP-HPLC peak areas, 37° C.)
Procedure: The detection was carried out on the wave length 220 nm. The samples dosing on the column was carried out by the loop 20 μl.
(§1) For the study of Creatine amides stability, 1 ml of water or blood plasma was added to 200 μl of aqueous solution of starting amide with a concentration of 2÷3 mg/ml then shaken; a probe volume of 200 μl was taken up immediately and analysis of an initial concentration of the Creatine amide was carried out. Further, the solution was placed into a vibro-thermostat at a temperature of 37° C., then aliquote 200 μl was taken up in 0.5, 1, and 3 hours of thermostatics. 20 μl 10% solution of trichloroacetic acid was added to the taken probe, and kept for 15 min at temperature (−)24° C., then centrifuged at 6000×g for 5 minutes for sedimentation of plasma proteins, supernatant was taken up and its analysis was carried out.
(§2) For evaluation of samples' stability, peak areas of a corresponding compound at the beginning of experiment and at selected time intervals were compared (Tables 1, 2).

[2] = dosages up to 30 g for a few days, per os; cited from earlier work
[3] = Stability of Creatine amides in rat blood plasma (RP-HPLC peak areas, 37° C.)
Procedure: Study of the Creatine derivatives stability in aqueous solution, as well as in human and rat blood plasma was carried out by the method of Reversed Phase HPLC using a chromatography system, known as Beckman System Gold™ (USA) in the following configuration: Programmable Solvent Module 126, Manual Injector Rheodyne 7725i, Programmable Detector Module 166, featured with the Beckman System Gold Chromatography Software™. The analysis was carried out on the column Luna 5μ C18(2) 100 Å 150×4.6 mm (Phenomenex, USA) with the precolumn Guard Cartridge C18 at the flow rate 1 ml/min in the linear gradient of acetonitrile: for analogue from the Example 1 from 5 to 25% of acetonitrile in 20 min (A: 0.1% of […]—H2O, B: 0.1% of H3PO4-acetonitrile), in case of substance from the Examples 2÷8: from 3 to 23% of acetonitrile in 20 minutes. The detection was carried out on the wave length 220 nm. The samples dosing on the column was carried out by the loop 20 μl.
as §1, §2

[4] = peak area relative to start, 37° C.

Structure (SMILES) | Stability in human blood plasma, 0 h ([1]; human, plasma) [%] | Stability in human blood plasma, 0.5 h ([1]; human, plasma) [%] | Stability in human blood plasma, 1 h ([1]; human, plasma) [%] | Stability in human blood plasma, 3 h ([1]; human, plasma) [%] | Stability in a rat blood plasma, 0 h ([3]; rat, plasma) [%] | Stability in a rat blood plasma, 0.5 h ([3]; rat, plasma) [%] | Stability in a rat blood plasma, 1 h ([3]; rat, plasma) [%] | Stability in a rat blood plasma, 3 h ([3]; rat, plasma) [%] | Stability in human blood plasma, 0 h [1, 4] [%] | further results
CN(CC(=O)OCc1ccccc1)C(=N)N [Creatine benzyl ester, reference compound] | – | – | – | – | – | – | – | – | 100 | Decrease of concentration in human blood plasma ([1]; during 0.75 hours): 53%; remaining at 0.75 h ([1]; human, blood plasma): 53%; remaining at 3 h ([1]; human, blood plasma): 46%
CN(CC(=O)O)C(=N)N.O [Creatine monohydrate] | – | – | – | – | – | – | – | – | – | Increase of the total Creatine content in a human's skeleton muscles [2]: more than 20%
CC(=O)O.CCOC(=O)CCCNC(=O)CN(C)C(=N)N [Example 1, Creatinyl-γ-Aminobutyric Acid Ethyl Ester Acetate] | – | – | – | – | – | – | – | – | 100 | Stability in human blood plasma, 0.5 h [1, 4]: 99%; Stability in human blood plasma, 1 h [1, 4]: 103%; Stability in human blood plasma, 3 h [1, 4]: 104%; Stability in a rat blood plasma, 0 h [3, 4]: 100%; Stability in a rat blood plasma, 0.5 h [3, 4]: 96%; Stability in a rat blood plasma, 1 h [3, 4]: 98%; Stability in a rat blood plasma, 3 h [3, 4]: 99%
CC(=O)O.CN(CC(=O)N[C@@H](Cc1ccccc1)C(N)=O)C(=N)N [Example 3, Creatinyl-L-Phenylalanine Amide Acetate] | 100 | 100 | 100 | 100 | 100 | 96 | 98 | 99 | – | –
CN(CC(=O)N[C@@H](Cc1ccccc1)C(=O)O)C(=N)N.Cl [Example 8, Creatinyl-Phenylalanine hydrochloride] | – | – | – | – | – | – | – | – | 100 | Stability in human blood plasma, 0.5 h [1, 4]: 99%; Stability in human blood plasma, 1 h [1, 4]: 98%; Stability in human blood plasma, 3 h [1, 4]: 97%; Stability in a rat blood plasma, 0 h [3, 4]: 100%; Stability in a rat blood plasma, 0.5 h [3, 4]: 98%; Stability in a rat blood plasma, 1 h [3, 4]: 98%; Stability in a rat blood plasma, 3 h [3, 4]: 95%

Continued, in another order:

Stability in human blood plasma, 0 h ([1]; human, plasma) [%] | Stability in human blood plasma, 0.5 h ([1]; human, plasma) [%] | Stability in human blood plasma, 1 h ([1]; human, plasma) [%] | Stability in human blood plasma, 3 h ([1]; human, plasma) [%] | Stability in a rat blood plasma, 0 h ([3]; rat, plasma) [%] | Stability in a rat blood plasma, 0.5 h ([3]; rat, plasma) [%] | Stability in a rat blood plasma, 1 h ([3]; rat, plasma) [%] | Stability in a rat blood plasma, 3 h ([3]; rat, plasma) [%] | Structure (SMILES) | Stability in human blood plasma, 0 h [1, 4] [%] | further results
100 | 99 | 99 | 100 | 100 | 100 | 97 | 98 | CN(CC(=O)N[C@@H](Cc1ccccc1)C(N)=O)C(=N)N.O [Example 2, Creatinyl-L-Phenylalanine Amide Hydrate] | – | –
100 | 98 | 100 | 99 | 100 | 99 | 99 | 96 | CN(CC(=O)NCC(=O)OCc1ccccc1)C(=N)N.Cl [Example 4, Creatinyl-Glycine Benzyl Ester Hydrochloride] | – | –
100 | – | – | – | 100 | – | – | – | CCOC(=O)CNC(=O)[C@H](CCCNC(=N)N)NC(=O)[C@H](Cc1ccccc1)NC(=O)CN(C)C(=N)N [Example 7, Creatinyl-Phenylalanyl-Arginyl-Glycine Ethyl Ester Acetate] | – | remaining at 0.5 h ([1]; human, plasma): 94%; remaining at 1 h ([1]; human, plasma): 90%; remaining at 3 h ([1]; human, plasma): 85%; remaining at 0.5 h ([3]; rat, plasma): 93%; remaining at 1 h ([3]; rat, plasma): 92%; remaining at 3 h ([3]; rat, plasma): 85%
